Assay results taken from patent US11414442B2, “ARF6 inhibitors and related methods” (Navigen, Inc., priority 2017, dated 2022).
pIC50: −log10 of the molar value. Values joined by “and” are separate entries in the source; they are usually repeats but may differ in a detail not shown here. Equal entries are not always repeated. Where two headings read alike, the source gives them in different places.

Key:
ARF6 = ARF6 (Homo sapiens, UniProt P62330); experiment: ARF6 inhibition, biochemical fluorometric nucleotide exchange assay
ARF6, sequence (P62330 whole entry, species assumed): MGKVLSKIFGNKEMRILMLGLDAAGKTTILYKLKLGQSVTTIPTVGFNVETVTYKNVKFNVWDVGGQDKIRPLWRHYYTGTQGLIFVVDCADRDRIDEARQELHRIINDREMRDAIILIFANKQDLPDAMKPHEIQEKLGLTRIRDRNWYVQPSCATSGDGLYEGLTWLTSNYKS
From the text: These ARF6 inhibitors were discovered using a high-throughput biochemical, fluorometric nucleotide exchange assay to screen 100,000 compounds from a commercially available compound library. Medicinal chemistry optimization efforts have also been conducted. In some embodiments, the clinical potential of the discovered small molecule ARF6 inhibitors can be limited by poor solubility. Accordingly, the synthesis and development of water soluble prodrugs of ARF6 inhibitors can be advantageous. […]

[1] = Solubility in water and PBS pH 7.4 (Tables 1 and 2); type: physicochemical
[2] = test system: LPS-induced acute lung injury (ALI); experiment: Mouse model of LPS-induced ALI, BALF cell count and BALF protein; type: in vivo; details: dexamethasone 5 mg/kg IP at T=0 and 6, positive control in the experiments of the compound of that line; mean ± SEM
Method: LPS was instilled into the trachea of anesthetized mice. […] The efficacy endpoints were total cell counts and total protein in BALF. All studies were conducted using vehicle negative controls and dexamethasone (5 mg/kg IP at T=0 and 6) as a positive control. Data were analyzed by 1-way ANOVA followed by Tukey's multiple comparison test (GRAPHPAD PRISM® software, version 6.05). […] Reductions in BALF total protein were also observed. […]

[3] = Solubility of ARF6 prodrugs in various vehicles (Table 4); type: physicochemical
[4] = test system: multidrug-resistant Pseudomonas aeruginosa (PA); experiment: Multidrug-resistant Pseudomonas aeruginosa mouse model of pneumonia; type: in vivo; details: NAV-AAR′ 38 and 64 mg/kg subcutaneous once daily for 6 days
Method: NAV-AAR′ is also active in a multidrug-resistant Pseudomonas aeruginosa (PA) mouse model of pneumonia. […] NAV-AAR′ was administered by subcutaneous injection once daily for 6 days. The antibiotic meropenem was ineffective against MDR PA in this model.

[5] = Table 1, water, read-out: Solubility Water
[6] = aqueous buffer, Table 1, PBS pH 7.4, read-out: Solubility PBS pH 7.4
[7] = Table 2, water, read-out: Solubility Water
[8] = 20 mM Na citrate buffer, pH 3.1, aqueous buffer, kinetic from dmso stock, diluted from 10 mM solution in DMSO, read-out: Solubility (μM) 20 mM Na Citrate, pH 3.1
[9] = water, kinetic from dmso stock, diluted from 10 mM solution in DMSO, read-out: Solubility (μM) H2O

pIC50 (ARF6; Table 1, read-out: ARF6 IC50) | solubility [1, 5] | solubility [1, 6] [µM] | SMILES | also measured
5.54 | 300 µM | < 1 | N#Cc1ccc(-c2cc(=O)[nH]c3c(-c4ccc(Cl)cc4)c(Cc4ccccc4)nn23)c(OC(=O)[C@@H](N)CCCCN)c1 [NAV-AAD] | 
5.62 | 500 µM | < 1 | N#Cc1ccc(-c2cc(=O)[nH]c3c(-c4ccc(Cl)c(Cl)c4)c(C4CC4)nn23)c(OC(=O)[C@@H](N)CCCCN)c1 [NAV-AB] | 
5.70 | 10.2 µM | 14 | N#Cc1ccc(-c2cc(=O)[nH]c3c(-c4ccc(Cl)c(Cl)c4)c(C4CC4)nn23)c(O)c1 [NAV-S] | 
5.55 | < 1 µM | 38 | O=c1cc(-c2ccccc2O)n2nc(C(F)(F)F)c(-c3ccc(Cl)c(Cl)c3)c2[nH]1 [NAV-O] | 
5.62 | < 1 µM | < 1 | O=c1cc(-c2ccc(F)cc2O)n2nc(Cc3ccccc3)c(-c3ccc(Cl)cc3)c2[nH]1 [NAV-AD] | 
5.21 | < 1 µM | 20 | O=c1cc(-c2ccc([N+](=O)[O-])cc2O)n2nc(C3CC3)c(-c3ccc(Cl)c(Cl)c3)c2[nH]1 [NAV-L] | 
 |  |  | Cc1ccc(-c2c[nH]c3c(-c4ccc(Cl)cc4)c(Cc4ccccc4)nn3c2=O)c(O)c1 [NAV-AAC′] | pIC50 (ARF6; Table 2, read-out: ARF6 IC50): 5.48; solubility [1, 7]: < 1 mg/mL
< 4.30 | 56 µM | 82 | O=c1cc(-c2ccccc2O)n2nc(CN3CCOCC3)c(-c3ccc(Cl)cc3)c2[nH]1 [NAV-G] | 
5.85 | 5.75 µM | 19.6 | N#Cc1ccc(-c2cc(=O)[nH]c3c(-c4ccc(Cl)c(Cl)c4)c(C(F)(F)F)nn23)c(O)c1 [NAV-P] | 
 |  |  | C[C@@H]1C[C@H]2[C@@H]3CCC4=CC(=O)C=C[C@]4(C)[C@@]3(F)[C@@H](O)C[C@]2(C)[C@@]1(O)C(=O)CO [DEX, dexamethasone, reference compound] | percent reduction in LPS-induced increase in BALF cell count, DEX [2]: 64 ± 9% and 74 ± 5% and 63 ± 4% and 59 ± 5% and 70 ± 7%
5.37 | 450 µM | 22 | NCCCC[C@H](N)C(=O)Oc1cc(Cl)ccc1-c1cc(=O)[nH]c2c(-c3ccc(Cl)cc3)c(C(F)(F)F)nn12 [NAV-Z] | 
5.29 | < 1 µM | 11 | N#Cc1ccc(-c2cc(=O)[nH]c3c(-c4ccc(Cl)cc4)c(C(F)(F)F)nn23)c(O)c1 [NAV-Q] | 
4.59 | > 500 µM | 435 | NCCCC[C@H](N)C(=O)Oc1ccccc1-c1cc(=O)[nH]c2c(-c3ccc(Cl)c(Cl)c3)c(C(F)(F)F)nn12 [NAV-AG] | 
5.21 | 4.5 µM | 70 | O=c1cc(-c2ccc(F)cc2O)n2nc(C(F)(F)F)c(-c3ccc(Cl)cc3)c2[nH]1 [NAV-AY] | 
5.64 | 13 µM | 11 | O=c1cc(-c2ccc(C(F)(F)F)cc2O)n2nc(C(F)(F)F)c(-c3ccc(Cl)c(Cl)c3)c2[nH]1 [NAV-T] | 
 |  |  | NCC(=O)Oc1cc([N+](=O)[O-])ccc1-c1cc(=O)[nH]c2c(-c3ccc(Cl)cc3)c(Cc3ccccc3)nn12.O=C(O)C(F)(F)F [Example III, [2-[2-Benzyl-3-(4-chlorophenyl)-5-oxo-4H-pyrazolo[1,5-a]pyrimidin-7-yl]-5-nitro-phenyl] 2-aminoacetate trifluoroacetate] | solubility [3, 8]: 325 µM; solubility [3, 9]: 375 µM
5.72 | < 1 µM | 1.7 | N#Cc1ccc(-c2cc(=O)[nH]c3c(-c4ccc(Cl)cc4)c(Cc4ccccc4)nn23)c(O)c1 [NAV-R] | 
4.96 | < 1 µM | < 1 | O=c1cc(-c2ccc(Cl)cc2O)n2nc(Cc3ccccc3)c(-c3ccc(Cl)cc3)c2[nH]1 [NAV-D] | 
4.52 | 438 µM | 144 | NCCCC[C@H](N)C(=O)Oc1ccccc1-c1cc(=O)[nH]c2c(-c3ccc(Cl)cc3)c(Cc3ccccc3)nn12 [NAV-Y] | 

pIC50 (ARF6; Table 1, read-out: ARF6 IC50) | solubility [1, 5] | solubility [1, 6] [µM] | SMILES | also measured
5.38 | < 1 µM | 43 | O=c1cc(-c2ccc(Cl)cc2O)n2nc(C(F)(F)F)c(-c3ccc(Cl)cc3)c2[nH]1 [NAV-K] | 
5.80 | < 1 µM | 30 | O=c1cc(-c2ccc(F)cc2O)n2nc(C(F)(F)F)c(-c3ccc(Cl)c(Cl)c3)c2[nH]1 [NAV-AW] | 
5.48 |  |  | NCCCC[C@H](N)C(=O)Oc1cc(F)ccc1-c1cc(=O)[nH]c2c(-c3ccc(Cl)cc3)c(Cc3ccccc3)nn12 [NAV-AAE] | 
5.49 | 30 µM | 6 | O=c1cc(-c2ccc(C(F)(F)F)cc2O)n2nc(C3CC3)c(-c3ccc(Cl)c(Cl)c3)c2[nH]1 [NAV-V] | 
5.17 | 20 µM | 14 | O=c1cc(-c2ccc(C(F)(F)F)cc2O)n2nc(Cc3ccccc3)c(-c3ccc(Cl)cc3)c2[nH]1 [NAV-U] | 
5.72 | > 500 µM | 19 | N#Cc1ccc(-c2cc(=O)[nH]c3c(-c4ccc(Cl)c(Cl)c4)c(C(F)(F)F)nn23)c(OC(=O)[C@@H](N)CCCCN)c1 [NAV-AA] | 
5.72 | 1.1 µM | < 1 | O=c1cc(-c2ccc(F)cc2O)n2nc(C3CC3)c(-c3ccc(Cl)c(Cl)c3)c2[nH]1 [NAV-AF] | 
4.92 | < 1 µM | 68 | O=c1cc(-c2ccccc2O)n2nc(C(F)(F)F)c(C3CCCCC3)c2[nH]1 [NAV-E] | 
5.00 | 4 µM | 43 | O=c1cc(-c2ccccc2O)n2nc(C(F)(F)F)c(-c3ccc(Cl)cc3)c2[nH]1 [NAV-M] | 
< 4.30 |  |  | Cc1ccc(-c2cc(=O)[nH]c3c(-c4ccc(Cl)cc4)c(Cc4ccccc4)nn23)c(OC(=O)[C@@H](N)CCCCN)c1 [NAV-AAF] | 
4.52 | 7 µM | 13 | O=c1cc(-c2ccc(Cl)cc2O)n2nc(CN3CCOCC3)c(-c3ccc(Cl)cc3)c2[nH]1 [NAV-H] | 
5.31 | < 1 µM | 21 | O=c1cc(-c2ccc(Cl)cc2O)n2nc(C(F)(F)F)c(C3CCCCC3)c2[nH]1 [NAV-F] | 
5.14 | 9.2 µM | 1.4 | O=c1cc(-c2ccccc2O)n2nc(Cc3ccccc3)c(-c3ccc(Cl)cc3)c2[nH]1 [NAV-C] | 
 |  |  | C[C@H](N)C(=O)Oc1cc([N+](=O)[O-])ccc1-c1cc(=O)[nH]c2c(-c3ccc(Cl)cc3)c(Cc3ccccc3)nn12.O=C(O)C(F)(F)F [Example V, [2-[2-Benzyl-3-(4-chlorophenyl)-5-oxo-4H-pyrazolo[1,5-a]pyrimidin-7-yl]-5-nitro-phenyl] (2S)-2-aminopropanoate trifluoroacetate] | pIC50 (ARF6; Table 4, read-out: ARF6 inhibition IC50): 5.72; solubility [3, 8]: 160 µM; solubility ([3]; 0.1% Tween 80 in D5W, aqueous with cosolvent or surfactant or cyclodextrin, kinetic from dmso stock, diluted from 10 mM solution in DMSO, read-out: Solubility (μM) 0.1% Tween 80 in D5W): 5.4 µM; solubility ([3]; DPBS, pH 7.4, aqueous buffer, kinetic from dmso stock, diluted from 10 mM solution in DMSO, read-out: Solubility (μM) DPBS, pH 7.4): < 1 µM; solubility ([3]; saline or isotonic, thermodynamic from solid, D5W, prepared from powder, read-out: Solubility (μM) D5W Prepared from powder): 20 µM; solubility [3, 9]: 150 µM
 |  |  | O=c1c(-c2ccc(F)cc2OP(=O)([O-])[O-])c[nH]c2c(-c3ccc(Cl)cc3)c(Cc3ccccc3)nn12.[Na+].[Na+] [NAV-AAP′] | pIC50 (ARF6; Table 2, read-out: ARF6 IC50): 5.04; solubility [1, 7]: > 50 mg/mL
 |  |  | C[C@@H](O)[C@H]1C(=O)N2C(C(=O)O)=C(S[C@@H]3CN[C@H](C(=O)N(C)C)C3)[C@H](C)[C@H]12 [meropenem, reference compound] | survival in MDR PA pneumonia [4]: ineffective
4.92 | < 1 µM | < 1 | O=c1cc(-c2ccc(Cl)cc2O)n2nc(C3CC3)c(-c3ccc(Cl)c(Cl)c3)c2[nH]1 [NAV-J] | 
4.68 | 29 µM | 1.8 | O=c1cc(-c2ccccc2O)n2nc(C3CC3)c(-c3ccc(Cl)c(Cl)c3)c2[nH]1 [NAV-I] | 

SMILES | pIC50 (ARF6; Table 1, read-out: ARF6 IC50) | solubility [1, 5] | solubility [1, 6] [µM] | also measured
O=c1cc(-c2ccc(F)cc2OP(=O)(O)O)n2nc(Cc3ccccc3)c(-c3ccc(Cl)cc3)c2[nH]1 [NAV-AAP] | 5.04 |  |  | 
Cc1ccc(-c2cc(=O)[nH]c3c(-c4ccc(Cl)cc4)c(Cc4ccccc4)nn23)c(OP(=O)([O-])[O-])c1.[Na+].[Na+] [NAV-AAR] |  | > 50 mg/mL |  | 
Cc1ccc(-c2cc(=O)[nH]c3c(-c4ccc(Cl)cc4)c(Cc4ccccc4)nn23)c(OP(=O)(O)O)c1 [NAV-AAQ] | 5.34 | > 50 mg/mL |  | 
